Data reported in paper PMC7898037, “Improving mitochondria and ER stability helps eliminate upper motor neuron degeneration that occurs due to mSOD1 toxicity and TDP‐43 pathology” (Clinical and Translational Medicine, 2021).
Values joined by “and” are separate entries in the source; they are usually repeats but may differ in a detail not shown here. Identical values can stand only once.

Tests used:
[1] = test system: UMNs in the motor cortex of hSOD1^G93A‐UeGFP mice; assay: UMN quantification in motor cortex, hSOD1^G93A‐UeGFP mice; type: in vivo; settings: for Mean, Fig. 5E (UMN quantification in motor cortex): hSOD1G93A-UeGFP mice; for average number of UMNs per section in the motor cortex: hSOD1^G93A‐UeGFP mice
Method: (§1) hSOD1^G93A‐UeGFP, prpTDP‐43^A315T‐UeGFP and WT‐UeGFP mice were weighed and the required NU‐9 dose per weight was calculated (20 or 100 mg/kg), which was administered once daily by oral gavage, starting at postnatal day (P)60 and continuing until P120. Animals from the untreated group received the vehicle (NMP and olive oil) only. For oral administration purposes, 20 ga × 38 mm plastic feeding tubes were used (Instech Laboratories, Inc). The gavage tip was inserted into the mouth directly over the tongue and into the pharynx. While observing the swallowing reflex, the tip was safely and smoothly slid into the esophagus. Once the administration was completed, the gavage tip was pulled straight out.
Since UMNs are genetically labeled with eGFP expression in the motor cortex of WT‐UeGFP, hSOD1^G93A‐UeGFP, and prpTDP‐43^A315T‐UeGFP mice, UMNs were identified based on the GFP expression. Quantitative analyses were performed on three matched rostrocaudal sections spanning the motor cortex. Three images per subject were taken to capture a 4× objective filed that encompass layer 5 of the motor cortex. An inverted epifluorescent Eclipse TE2000‐E microscope (Nikon) with the same exposure time and intensity was used. UMNs were counted only if their soma and apical dendrite were both visualized in the same 50‐µm thick section. Images were analyzed in ImageJ (NIH) using the Find maxima processing command to determine the local maxima within a predetermined region of interest that circumscribes the layer 5 of the motor cortex. A universal noise tolerance, which ignores the local maxima corresponding to background and autofluorescence, was applied to all images.

[2] = test system: LMNs in the lumbar spinal cord of hSOD1^G93A‐UeGFP mice; assay: Lower motor neuron (LMN) quantification in lumbar spinal cord, hSOD1^G93A‐UeGFP mice; type: in vivo; settings: for Mean, Fig. 8E (LMN quantification in lumbar spinal cord) / Mean, Fig. 8F (LMN quantification in lumbar spinal cord) / Mean, Fig. 8G (LMN quantification in lumbar spinal cord): hSOD1G93A-UeGFP mice; for number of LMNs per section, lumbar spinal cord / number of NeuN^+/ChAT^+ LMNs (vulnerable to degeneration): hSOD1^G93A‐UeGFP mice, P120
Method: as §1
A 5‐mm block of lumbar spinal cord was sectioned in 50‐µm thick sections with a vibratome (Leica), and every other section was used for immunohistochemical analysis. LMNs were identified based on their location in the ventral horn and expression of the molecular marker ChAT. 10× Images were captured using an inverted epifluorescent Eclipse TE2000‐E microscope (Nikon). GFP^+/ChAT^+ and NeuN^+/ChAT^+ LMNs were quantified per section. The average number of LMNs per section is reported per mouse with n = 5 mice per group.

[3] = test system: prpTDP‐43^A315T‐UeGFP mice; assay: Hanging wire test (max 60 s), prpTDP‐43^A315T‐UeGFP mice; type: in vivo; settings: for wire hanging, Predicted (LS) mean: prpTDP-43A315T-UeGFP (NU-9 100 mg/kg/day); for wire hanging, Average: prpTDP-43A315T-UeGFP, NU-9 100 mg/kg/day po
Method: as §1
Behavior data were collected from hSOD1^G93A‐UeGFP and WT‐UeGFP mice (starting at P60 and every 7 days until P116) and from prpTDP‐43^A315T‐UeGFP mice (at P60, P90, and P120) with the following number of mice for each group: WT‐UeGFP vehicle (n = 10), hSOD1^G93A‐UeGFP vehicle (n = 6), WT‐UeGFP 20 mg/kg/day NU‐9 (n = 5), hSOD1^G93A‐UeGFP 20 mg/kg/day NU‐9 (n = 7), WT‐UeGFP 100 mg/kg/day NU‐9 (n = 11), hSOD1^G93A‐UeGFP 100 mg/kg/day NU‐9 (n = 9), prpTDP‐43^A315T‐UeGFP untreated (n ≥ 3), and prpTDP‐43^A315T‐UeGFP 100 mg/kg/day NU‐9 (n = 4) (Table S3).
Mice were placed on a wire mesh, which was then inverted and suspended above the home cage; the time when the animal fell was recorded. This test was performed three times for a maximum of 60 s each session, with a 1‐min rest period between each trial. The average performance for each session is presented as the average of the three trials.

[4] = parameters: method as in PMID 22189273, PMID 22837812; settings: cited from earlier work
[5] = parameters: method as in PMID 22189273, PMID 22837812; settings: cited from earlier work; remark: listed apart in the source
cortical neurons = test system: cortical neurons; parameters: method as in earlier work; settings: ref 53 (compound 2), ref 54 (NU‐9); cited from earlier work
[6] = hSOD1G93A-UeGFP vehicle minus NU-9 20 mg/kg/day, Tukey's multiple comparisons test
[7] = hSOD1G93A-UeGFP vehicle minus NU-9 100 mg/kg/day, Tukey's multiple comparisons test

C[C@H](Oc1cc(C(F)(F)F)cc(C(F)(F)F)c1)C1CC(=O)CC(=O)C1 [NU‐9]
Mean, Fig. 5E (UMN quantification in motor cortex) ([1]; NU-9 20 mg/kg/day): 21.06 | Mean, Fig. 5E (UMN quantification in motor cortex) ([1]; NU-9 100 mg/kg/day): 46.43 | Mean Diff., Fig. 5E, GS Vehicle vs. GS NU-9 (20) [1, 6]: -16.12 | Mean Diff., Fig. 5E, GS Vehicle vs. GS NU-9 (100) [1, 7]: -41.49 | average number of UMNs per section in the motor cortex ([1]; 20 mg/kg/day oral gavage P60–P120): 21 ± 5 UMN | average number of UMNs per section in the motor cortex ([1]; 100 mg/kg/day oral gavage P60–P120): 46 ± 3 UMN | Mean, Fig. 8E (LMN quantification in lumbar spinal cord) ([2]; NU-9 20 mg/kg/day): 12.11 | Mean, Fig. 8F (LMN quantification in lumbar spinal cord) ([2]; NU-9 20 mg/kg/day): 6.506 | Mean, Fig. 8G (LMN quantification in lumbar spinal cord) ([2]; NU-9 20 mg/kg/day): 18.62 | Mean, Fig. 8E (LMN quantification in lumbar spinal cord) ([2]; NU-9 100 mg/kg/day): 9.708 | Mean, Fig. 8F (LMN quantification in lumbar spinal cord) ([2]; NU-9 100 mg/kg/day): 4.426 | Mean, Fig. 8G (LMN quantification in lumbar spinal cord) ([2]; NU-9 100 mg/kg/day): 14.13 | Mean Diff., Fig. 8E, GS Vehicle vs. GS NU-9 (20) [2, 6]: -1.853 | Mean Diff., Fig. 8F, GS Vehicle vs. GS NU-9 (20) [2, 6]: 0.3602 | Mean Diff., Fig. 8G, GS Vehicle vs. GS NU-9 (20) [2, 6]: -1.493 | Mean Diff., Fig. 8E, GS Vehicle vs. GS NU-9 (100) [2, 7]: 0.5524 | Mean Diff., Fig. 8F, GS Vehicle vs. GS NU-9 (100) [2, 7]: 2.44 | Mean Diff., Fig. 8G, GS Vehicle vs. GS NU-9 (100) [2, 7]: 2.992 | number of LMNs per section, lumbar spinal cord ([2]; 20 mg/kg/day): 18.6 ± 0.4 LMN | number of NeuN^+/ChAT^+ LMNs (vulnerable to degeneration) ([2]; 20 mg/kg/day): 12.1 ± 0.4 LMN | number of LMNs per section, lumbar spinal cord ([2]; 100 mg/kg/day): 14.1 ± 1.3 LMN | number of NeuN^+/ChAT^+ LMNs (vulnerable to degeneration) ([2]; 100 mg/kg/day): 9.7 ± 0.9 LMN | numbers of GFP^+ and ChAT^+ LMN (resistant to degeneration) ([2]; regardless of genotype or treatment): comparable | wire hanging, Predicted (LS) mean ([3]; P60, mixed-effects analysis): 56.83 | wire hanging, Predicted (LS) mean ([3]; P90, mixed-effects analysis): 57.17 | wire hanging, Predicted (LS) mean ([3]; P120, mixed-effects analysis): 59.67 | wire hanging, Average ([3]; P60): 55.7778 | wire hanging, Average ([3]; P90): 56.2222 | wire hanging, Average ([3]; P120): 59.5556 | hanging wire test, latency to fall ([3]; prpTDP‐43^A315T mice, 100 mg/kg/day, P120): 59.5 ± 0.3 s | Solubility (aqueous) [4]: ≥ 100 µM and ≥ 37 µg/ml | Plasma protein binding [5]: 90% | penetration into neurons (cortical neurons): penetrated cortical neurons
